# Values quoted from earlier work as cited in patent US20250255825A1, “POLYMER-LIPID NANOCOMPLEX FOR ENHANCED AQUEOUS SOLUBILISATION AND ABSORPTION OF HYDROPHOBIC ACTIVE COMPOUNDS” (priority 2019, published 2025).
# Read-outs that look alike come from different tables or passages of the source.
# Key:
# [1] = test system: malaria parasitaemia in the blood; details: reported value for un-formulated LUM
# [2] = partition coefficient octanol/water
# [3] = not given; remark: listed apart in the source
SMILES,half-life (T½) (in vivo) [h],highest concentration (Cmax) in the blood (orally administered) [ng/mL],time to reach the highest concentration (Tmax) (orally administered),effective dose (ED90) to clear 90% of parasitaemia in the blood [1] [mg/kg],Log P [2],protein bound (plasma proteins) [%],bioavailability ([3]; inhalation),bioavailability ([3]; orally)
CCCCN(CCCC)CC(O)c1cc(Cl)cc2c1-c1ccc(Cl)cc1/C2=C/c1ccc(Cl)cc1 (racemic) [Lumefantrine],96 to 120,7000,about 6 hours,12.01,9,99.7,,
C=C(C)[C@@H]1CCC(C)=C[C@H]1c1c(O)cc(CCCCC)cc1O [Cannabidiol],,,,,,,11-45%,13-19%
